Assay results reported in patent US10405547B2, “Substituted cyclic amides as herbicides” (FMC Corporation, priority 2015, dated 2019).

Columns and labels:
Type in all cases: in vivo
kochia (Kochia scoparia) [1] = assay: Test A preemergence, kochia; conditions: 0 to 100 scale (0 no effect, 100 complete control)
Excerpt: (§1) Test A Seeds of plant species selected from barnyardgrass (Echinochloa crus-galli), kochia (Kochia scoparia), ragweed (common ragweed, Ambrosia elatior), ryegrass, Italian (Lolium multiflorum), foxtail, giant (Setaria faberii), and pigweed (Amaranthus retroflexus), were planted into a blend of loam soil and sand and treated preemergence with a directed soil spray using test chemicals formulated in a non-phytotoxic solvent mixture which included a surfactant.
(§2) At the same time, plants selected from these weed species and also blackgrass (Alopecurus myosuroides), galium (catchweed bedstraw, Galium aparine), wheat (Triticum aestivum), and corn (Zea mays) were planted in pots containing the same blend of loam soil and sand and treated with postemergence applications of test chemicals formulated in the same manner. Plants ranged in height from 2 to 10 cm and were in the one- to two-leaf stage for the postemergence treatment. Treated plants and untreated controls were maintained in a greenhouse for approximately 10 days, after which time all treated plants were compared to untreated controls and visually evaluated for injury. Plant response ratings, summarized in Table A, are based on a 0 to 100 scale where 0 is no effect and 100 is complete control. A dash (-) response means no test result.

[2] = test system: pigweed (Amaranthus retroflexus); assay: Test A postemergence, pigweed; conditions: visual injury, 0 to 100 scale (0 no effect, 100 complete control), approximately 10 days
Excerpt: as §1, §2

[3] = test system: ragweed (common ragweed, Ambrosia elatior); assay: Test A postemergence, ragweed; conditions: visual injury, 0 to 100 scale (0 no effect, 100 complete control), approximately 10 days
Excerpt: as §1, §2

[4] = test system: barnyardgrass (Echinochloa crus-galli); assay: Test A postemergence, barnyardgrass; conditions: visual injury, 0 to 100 scale (0 no effect, 100 complete control), approximately 10 days
Excerpt: as §1, §2

[5] = test system: wheat (Triticum aestivum); assay: Test A postemergence, wheat; conditions: visual injury, 0 to 100 scale (0 no effect, 100 complete control), approximately 10 days
Excerpt: as §1, §2

[6] = test system: foxtail, giant (Setaria faberii); assay: Test A preemergence, giant foxtail; conditions: 0 to 100 scale (0 no effect, 100 complete control)
Excerpt: as §1, §2

corn (Zea mays) = assay: Test A postemergence, corn; conditions: visual injury, 0 to 100 scale (0 no effect, 100 complete control), approximately 10 days
Excerpt: as §1, §2

[7] = test system: barnyardgrass (Echinochloa crus-galli); assay: Test A preemergence, barnyardgrass; conditions: 0 to 100 scale (0 no effect, 100 complete control)
Excerpt: as §1, §2

[8] = test system: foxtail, giant (Setaria faberii); assay: Test A postemergence, giant foxtail; conditions: visual injury, 0 to 100 scale (0 no effect, 100 complete control), approximately 10 days
Excerpt: as §1, §2

[9] = test system: ragweed (common ragweed, Ambrosia elatior); assay: Test A preemergence, ragweed; conditions: 0 to 100 scale (0 no effect, 100 complete control)
Excerpt: as §1, §2

kochia (Kochia scoparia) [10] = assay: Test A postemergence, kochia; conditions: visual injury, 0 to 100 scale (0 no effect, 100 complete control), approximately 10 days
Excerpt: as §1, §2

[11] = test system: galium (catchweed bedstraw, Galium aparine); assay: Test A postemergence, galium; conditions: visual injury, 0 to 100 scale (0 no effect, 100 complete control), approximately 10 days
Excerpt: as §1, §2

[12] = test system: ryegrass, Italian (Lolium multiflorum); assay: Test A postemergence, Italian ryegrass; conditions: visual injury, 0 to 100 scale (0 no effect, 100 complete control), approximately 10 days
Excerpt: as §1, §2

[13] = test system: ryegrass, Italian (Lolium multiflorum); assay: Test A preemergence, Italian ryegrass; conditions: 0 to 100 scale (0 no effect, 100 complete control)
Excerpt: as §1, §2

[14] = test system: blackgrass (Alopecurus myosuroides); assay: Test A postemergence, blackgrass; conditions: visual injury, 0 to 100 scale (0 no effect, 100 complete control), approximately 10 days
Excerpt: as §1, §2

[15] = test system: pigweed (Amaranthus retroflexus); assay: Test A preemergence, pigweed; conditions: 0 to 100 scale (0 no effect, 100 complete control)
Excerpt: as §1, §2

Row | Structure (SMILES) | Plant response rating, Kochia (kochia (Kochia scoparia) [1]; 125 g ai/ha) | Plant response rating, Kochia (kochia (Kochia scoparia) [1]; 500 g ai/ha) | Plant response rating, Pigweed ([2]; 125 g ai/ha) | Plant response rating, Pigweed ([2]; 500 g ai/ha) | Plant response rating, Ragweed ([3]; 125 g ai/ha) | Plant response rating, Ragweed ([3]; 500 g ai/ha) | Plant response rating, Barnyardgrass ([4]; 125 g ai/ha) | Plant response rating, Barnyardgrass ([4]; 500 g ai/ha) | Plant response rating, Wheat ([5]; 125 g ai/ha) | Plant response rating, Wheat ([5]; 500 g ai/ha) | Plant response rating, Foxtail, Giant ([6]; 125 g ai/ha) | Plant response rating, Foxtail, Giant ([6]; 500 g ai/ha) | Plant response rating, Corn (corn (Zea mays); 125 g ai/ha) | Plant response rating, Corn (corn (Zea mays); 500 g ai/ha) | Plant response rating, Barnyardgrass ([7]; 125 g ai/ha) | Plant response rating, Barnyardgrass ([7]; 500 g ai/ha) | Plant response rating, Foxtail, Giant ([8]; 125 g ai/ha) | Plant response rating, Foxtail, Giant ([8]; 500 g ai/ha) | Plant response rating, Ragweed ([9]; 125 g ai/ha) | Plant response rating, Ragweed ([9]; 500 g ai/ha) | other results
1 | O=C1NCC(c2cccc(Cn3cccn3)c2)C1C(=O)Nc1ccc(F)cc1F (centres unmarked) [Compound 28] | 0 | 0 | 0 | 0 | 0 | 0 | 0 | 20 | 0 | 0 | 0 | 30 | 0 | 0 | 0 | 30 | 0 | 20 | 0 | 0 | Plant response rating, Kochia (kochia (Kochia scoparia) [10]; 125 g ai/ha): 0; Plant response rating, Kochia (kochia (Kochia scoparia) [10]; 500 g ai/ha): 0; Plant response rating, Galium ([11]; 125 g ai/ha): 0; Plant response rating, Galium ([11]; 500 g ai/ha): 0; Plant response rating, Ryegrass, Italian ([12]; 125 g ai/ha): 0; Plant response rating, Ryegrass, Italian ([12]; 500 g ai/ha): 0; Plant response rating, Ryegrass, Italian ([13]; 125 g ai/ha): 0; Plant response rating, Ryegrass, Italian ([13]; 500 g ai/ha): 0; Plant response rating, Blackgrass ([14]; 125 g ai/ha): 0; Plant response rating, Blackgrass ([14]; 500 g ai/ha): 0; Plant response rating, Pigweed ([15]; 125 g ai/ha): 0; Plant response rating, Pigweed ([15]; 500 g ai/ha): 0
2 | CC1(COc2cccc(C3CNC(=O)C3C(=O)Nc3cccc(F)c3F)c2)COC1 (centres unmarked) [Compound 13] | 0 | 0 | 0 | 0 | 0 | 0 | 0 | 60 | 0 | 0 | 80 | 90 | 0 | 0 | 0 | 80 | 40 | 70 | 0 | 0 | Plant response rating, Kochia (kochia (Kochia scoparia) [10]; 125 g ai/ha): 0; Plant response rating, Kochia (kochia (Kochia scoparia) [10]; 500 g ai/ha): 20; Plant response rating, Galium ([11]; 125 g ai/ha): 0; Plant response rating, Galium ([11]; 500 g ai/ha): 40; Plant response rating, Ryegrass, Italian ([12]; 125 g ai/ha): 0; Plant response rating, Ryegrass, Italian ([12]; 500 g ai/ha): 30; Plant response rating, Ryegrass, Italian ([13]; 125 g ai/ha): 0; Plant response rating, Ryegrass, Italian ([13]; 500 g ai/ha): 0; Plant response rating, Blackgrass ([14]; 125 g ai/ha): 0; Plant response rating, Blackgrass ([14]; 500 g ai/ha): 20; Plant response rating, Pigweed ([15]; 125 g ai/ha): 0; Plant response rating, Pigweed ([15]; 500 g ai/ha): 0
3 | O=C1NCC(c2cccc(Cn3cncn3)c2)C1C(=O)Nc1cccc(F)c1F (centres unmarked) [Compound 32] | 0 | 0 | 0 | 0 | 0 | 0 | 0 | 10 | 0 | 0 | 0 | 40 | 0 | 0 | 0 | 0 | 0 | 20 | 0 | 0 | Plant response rating, Kochia (kochia (Kochia scoparia) [10]; 125 g ai/ha): 0; Plant response rating, Kochia (kochia (Kochia scoparia) [10]; 500 g ai/ha): 0; Plant response rating, Galium ([11]; 125 g ai/ha): 0; Plant response rating, Galium ([11]; 500 g ai/ha): 40; Plant response rating, Ryegrass, Italian ([12]; 125 g ai/ha): 0; Plant response rating, Ryegrass, Italian ([12]; 500 g ai/ha): 0; Plant response rating, Ryegrass, Italian ([13]; 125 g ai/ha): 0; Plant response rating, Ryegrass, Italian ([13]; 500 g ai/ha): 0; Plant response rating, Blackgrass ([14]; 125 g ai/ha): 0; Plant response rating, Blackgrass ([14]; 500 g ai/ha): 0; Plant response rating, Pigweed ([15]; 125 g ai/ha): 0; Plant response rating, Pigweed ([15]; 500 g ai/ha): 0
4 | O=C1NCC(c2cccc(OCC3CC3)c2)C1C(=O)Nc1ccc(F)cc1F (centres unmarked) [Compound 3] | 0 | 20 | 0 | 0 | 0 | 0 | 10 | 60 | 0 | 20 | 60 | 80 | 0 | 20 | 40 | 70 | 20 | 70 | 0 | 0 | Plant response rating, Kochia (kochia (Kochia scoparia) [10]; 125 g ai/ha): 0; Plant response rating, Kochia (kochia (Kochia scoparia) [10]; 500 g ai/ha): 40; Plant response rating, Galium ([11]; 125 g ai/ha): 20; Plant response rating, Galium ([11]; 500 g ai/ha): 40; Plant response rating, Ryegrass, Italian ([12]; 125 g ai/ha): 0; Plant response rating, Ryegrass, Italian ([12]; 500 g ai/ha): 30; Plant response rating, Ryegrass, Italian ([13]; 125 g ai/ha): 0; Plant response rating, Ryegrass, Italian ([13]; 500 g ai/ha): 20; Plant response rating, Blackgrass ([14]; 125 g ai/ha): 0; Plant response rating, Blackgrass ([14]; 500 g ai/ha): 30; Plant response rating, Pigweed ([15]; 125 g ai/ha): 0; Plant response rating, Pigweed ([15]; 500 g ai/ha): 0
